# Experimental data reported in US10611771B2, “Pyrazolo [3,4-d] pyrimidine derivative” (WEST CHINA HOSPITAL, SICHUAN UNIVERSITY, priority 2016, dated 2020).
# Values joined by “and” are separate entries in the source; they are usually repeats but may differ in a detail not shown here. Equal values may be shown once.
# Key:
# H1299 cells = experiment: MTT detection method, inhibitory effect against H1299 cells; format: cell-based
# Text: (§1) MTT detection method was used, and MTT is a yellow compound and a dye accepting hydrogen ions, and can be used as the respiratory chain in mitochondria of viable cells. Under the action of succinate dehydrogenase and cytochrome C, the tetrazolium ring broke to form blue formanzan crystal, and the formation amount of formanzan crystal was only directly proportional to the viable counts. The formanzan crystal formed by reduction can dissolve in dimethyl sulfoxide (DMSO), and the optical density (OD) value can be determined at 490 nm using ELISA, to reflect the viable counts.
# (§2) • Lung cancer cell lines: A549 and H1299. • Experimental materials: lung cancer cell lines, instruments and tools for cell culture, MTT, the compound mother liquid (10 mmol/L), and the positive control drug Src inhibitor pp1. 1. Specific Method • (3-1) Cell lines A549 and H1299 were recovered, and when the cells were in good conditions, namely cells grew to about 80% after one passage (i.e. the logarithmic growth phase), the cells were planked (96-well plate). • (3-2) Firstly, cells were collected, and the concentration of cell suspension was adjusted with counting chamber. Cells were seeded in 96-well plate at 1000˜10000 cells/well, and the detailed cell numbers in each well were dependent on the growth rate of different cells and the action time of drugs. A549 cells were seeded at 5000 cells, while H1299 cells were also seeded at 5000 cells, 200 μl for each well (100 μl cell suspension+100 μl drug dilution at different concentration gradient). The edge wells (36) were added 200 μl culture media (for prevention of edge effect). • (3-3) After planking and adding drugs, the plate was treated at 24 h, 48 h, and 72 h, and then for coloration, each well was added 200 μl culture media containing 20 μl MTT solution (5 mg/mL). The plate was continually cultured for 1˜4 hours, the incubation was stopped, and the culture supernatant fluid in each well was carefully absorbed. For suspension cells, the culture supernatant fluid in each well need be centrifuged before drawing. 150 μl DMSO was added to each well, and the plate was shaken on a shaking table for 15˜20 min, to allow the crystals to be completely dissolved. • (3-4) Colorimetry: The colorimetry was performed by ELISA, and the optical absorption value of each well was tested at a wavelength of 490 nm or 570 nm, and the result was recorded. • (3-5) Calculation Inhibition ratio=(the control−the drug)/the control×100% • IC50 (50% inhibitory concentration) can be calculated by spass software based on the inhibitory ratio at different concentration. II. Experimental Results • A549 cells were treated at 4 h, 24 h, 48 h, 72 h, and the drug dose was divided into the light concentration group (10 μm, 25 μm, 40 μm) and the high concentration group (50 μm, 80 μm, 100 μm), that were seeded at 6000 cells/well and 5000 cells/well, respectively, to carry out the experiment.
# H1299 cells were seeded at 5000 cells/well, and after treatment for 4 h, 24 h, 48 h, and 72 h, the results were shown in Tables 5-9 and FIGS. 5-8: […]
# A549 cells = experiment: MTT detection method, inhibitory effect against A549 cells; format: cell-based
# Text: as §1, §2
compound,measurement,setting,value
"CC(C)(C)n1nc(-c2ccc(OCCOCCOCCOCCO)cc2)c2c(N)ncnc21 [Compound 5, 2-(2-(2-(2-(4-(4-amino-1-tert-butyl-1H-pyrazolo[3,4-d]pyrimidin-3-)phenoxy)ethoxy)ethoxy)ethoxy)ethanol]",The inhibitory ratio (%) for three parallel assays,"H1299 cells; 4 h, 10 μm",4% and 6%
same,The mean inhibitory ratio (%),"H1299 cells; 4 h, 10 μm",4%
same,The inhibitory ratio (%) for three parallel assays,"H1299 cells; 4 h, 25 μm",6% and 7%
same,The mean inhibitory ratio (%),"H1299 cells; 4 h, 25 μm",7%
same,The inhibitory ratio (%) for three parallel assays,"H1299 cells; 4 h, 40 μm",7% and 8%
same,The mean inhibitory ratio (%),"H1299 cells; 4 h, 40 μm",8%
same,The inhibitory ratio (%) for three parallel assays,"H1299 cells; 4 h, 50 μm",13% and 9%
same,The mean inhibitory ratio (%),"H1299 cells; 4 h, 50 μm",10%
same,The inhibitory ratio (%) for three parallel assays,"H1299 cells; 4 h, 80 μm",12% and 13%
same,The mean inhibitory ratio (%),"H1299 cells; 4 h, 80 μm",12%
same,The inhibitory ratio (%) for three parallel assays,"H1299 cells; 4 h, 100 μm",13% and 15% and 14%
same,The mean inhibitory ratio (%),"H1299 cells; 4 h, 100 μm",14%
same,The inhibitory ratio (%) for three parallel assays,"H1299 cells; 24 h, 10 μm",10% and 8% and 13%
same,The mean inhibitory ratio (%),"H1299 cells; 24 h, 10 μm",11%
same,The inhibitory ratio (%) for three parallel assays,"H1299 cells; 24 h, 25 μm",14% and 13%
same,The mean inhibitory ratio (%),"H1299 cells; 24 h, 25 μm",14%
same,The inhibitory ratio (%) for three parallel assays,"H1299 cells; 24 h, 40 μm",11% and 13% and 14%
same,The mean inhibitory ratio (%),"H1299 cells; 24 h, 40 μm",13%
same,The inhibitory ratio (%) for three parallel assays,"H1299 cells; 24 h, 50 μm",20% and 25% and 26%
same,The mean inhibitory ratio (%),"H1299 cells; 24 h, 50 μm",24%
same,The inhibitory ratio (%) for three parallel assays,"H1299 cells; 24 h, 80 μm",28% and 26% and 24%
same,The mean inhibitory ratio (%),"H1299 cells; 24 h, 80 μm",26%
same,The inhibitory ratio (%) for three parallel assays,"H1299 cells; 24 h, 100 μm",29% and 31% and 26%
same,The mean inhibitory ratio (%),"H1299 cells; 24 h, 100 μm",28%
same,The inhibitory ratio (%) for three parallel assays,"H1299 cells; 48 h, 10 μm",4% and 5% and 6%
same,The mean inhibitory ratio (%),"H1299 cells; 48 h, 10 μm",5%
same,The inhibitory ratio (%) for three parallel assays,"H1299 cells; 48 h, 25 μm",15% and 18% and 14%
same,The mean inhibitory ratio (%),"H1299 cells; 48 h, 25 μm",16%
same,The inhibitory ratio (%) for three parallel assays,"H1299 cells; 48 h, 40 μm",22% and 25%
same,The mean inhibitory ratio (%),"H1299 cells; 48 h, 40 μm",23%
same,The inhibitory ratio (%) for three parallel assays,"H1299 cells; 48 h, 50 μm",24% and 26%
same,The mean inhibitory ratio (%),"H1299 cells; 48 h, 50 μm",25%
same,The inhibitory ratio (%) for three parallel assays,"H1299 cells; 48 h, 80 μm",36% and 38%
same,The mean inhibitory ratio (%),"H1299 cells; 48 h, 80 μm",37%
same,The inhibitory ratio (%) for three parallel assays,"H1299 cells; 48 h, 100 μm",42% and 41%
same,The mean inhibitory ratio (%),"H1299 cells; 48 h, 100 μm",41%
same,The inhibitory ratio (%) for three parallel assays,"H1299 cells; 72 h, 10 μm",8% and 5% and 2%
same,The mean inhibitory ratio (%),"H1299 cells; 72 h, 10 μm",5%
same,The inhibitory ratio (%) for three parallel assays,"H1299 cells; 72 h, 25 μm",7% and 4% and 3%
same,The mean inhibitory ratio (%),"H1299 cells; 72 h, 25 μm",5%
same,The inhibitory ratio (%) for three parallel assays,"H1299 cells; 72 h, 40 μm",18% and 21% and 23%
same,The mean inhibitory ratio (%),"H1299 cells; 72 h, 40 μm",20%
same,The inhibitory ratio (%) for three parallel assays,"H1299 cells; 72 h, 50 μm",26% and 23%
same,The mean inhibitory ratio (%),"H1299 cells; 72 h, 50 μm",24%
same,The inhibitory ratio (%) for three parallel assays,"H1299 cells; 72 h, 80 μm",37% and 36% and 38%
same,The mean inhibitory ratio (%),"H1299 cells; 72 h, 80 μm",37%
same,The inhibitory ratio (%) for three parallel assays,"H1299 cells; 72 h, 100 μm",45% and 41% and 39%
same,The mean inhibitory ratio (%),"H1299 cells; 72 h, 100 μm",42%
same,The inhibitory ratio (%) for three parallel assays,"A549 cells; 4 h, 10 μm",26.88% and 26.25% and 28.75%
same,The mean inhibitory ratio (%),"A549 cells; 4 h, 10 μm",27.29%
same,The mean inhibitory ratio (%),"A549 cells; 4 h, 25 μm",21.77%
same,The inhibitory ratio (%) for three parallel assays,"A549 cells; 4 h, 40 μm",23.44% and 20.94% and 18.13%
same,The mean inhibitory ratio (%),"A549 cells; 4 h, 40 μm",20.83%
same,The inhibitory ratio (%) for three parallel assays,"A549 cells; 4 h, 50 μm",16.57% and 11.14% and 14.57%
same,The mean inhibitory ratio (%),"A549 cells; 4 h, 50 μm",14.10%
same,The inhibitory ratio (%) for three parallel assays,"A549 cells; 4 h, 80 μm",20.86% and 20.29% and 14.57%
same,The mean inhibitory ratio (%),"A549 cells; 4 h, 80 μm",18.57%
same,The inhibitory ratio (%) for three parallel assays,"A549 cells; 4 h, 100 μm",24.00% and 20.86% and 22.57%
same,The mean inhibitory ratio (%),"A549 cells; 4 h, 100 μm",22.48%
same,The inhibitory ratio (%) for three parallel assays,"A549 cells; 24 h, 10 μm",14.35% and 15.65% and 13.26%
same,The mean inhibitory ratio (%),"A549 cells; 24 h, 10 μm",14.42%
same,The inhibitory ratio (%) for three parallel assays,"A549 cells; 24 h, 25 μm",22.39% and 13.70% and 14.78%
same,The mean inhibitory ratio (%),"A549 cells; 24 h, 25 μm",16.96%
same,The inhibitory ratio (%) for three parallel assays,"A549 cells; 24 h, 40 μm",26.30% and 16.52% and 14.13%
same,The mean inhibitory ratio (%),"A549 cells; 24 h, 40 μm",18.99%
same,The inhibitory ratio (%) for three parallel assays,"A549 cells; 24 h, 50 μm",17.08% and 18.33% and 17.92%
same,The mean inhibitory ratio (%),"A549 cells; 24 h, 50 μm",17.78%
same,The inhibitory ratio (%) for three parallel assays,"A549 cells; 24 h, 80 μm",22.50% and 20.83% and 20.21%
same,The mean inhibitory ratio (%),"A549 cells; 24 h, 80 μm",21.18%
same,The inhibitory ratio (%) for three parallel assays,"A549 cells; 24 h, 100 μm",27.92% and 27.50%
same,The mean inhibitory ratio (%),"A549 cells; 24 h, 100 μm",27.78%
same,The mean inhibitory ratio (%),"A549 cells; 48 h, 10 μm",9.64%
same,The inhibitory ratio (%) for three parallel assays,"A549 cells; 48 h, 25 μm",14.84% and 14.22% and 13.91%
same,The mean inhibitory ratio (%),"A549 cells; 48 h, 25 μm",14.32%
same,The inhibitory ratio (%) for three parallel assays,"A549 cells; 48 h, 40 μm",19.22% and 26.72% and 20.63%
same,The mean inhibitory ratio (%),"A549 cells; 48 h, 40 μm",22.19%
same,The inhibitory ratio (%) for three parallel assays,"A549 cells; 48 h, 50 μm",15.33% and 13.33% and 12.83%
same,The mean inhibitory ratio (%),"A549 cells; 48 h, 50 μm",13.83%
same,The inhibitory ratio (%) for three parallel assays,"A549 cells; 48 h, 80 μm",15.33% and 19.67% and 18.00%
same,The mean inhibitory ratio (%),"A549 cells; 48 h, 80 μm",17.67%
same,The inhibitory ratio (%) for three parallel assays,"A549 cells; 48 h, 100 μm",30.50% and 31.33% and 31.67%
same,The mean inhibitory ratio (%),"A549 cells; 48 h, 100 μm",31.17%
same,The inhibitory ratio (%) for three parallel assays,"A549 cells; 72 h, 10 μm",9.82% and 8.11% and 15.05%
same,The mean inhibitory ratio (%),"A549 cells; 72 h, 10 μm",10.99%
same,The inhibitory ratio (%) for three parallel assays,"A549 cells; 72 h, 25 μm",35.41% and 32.43% and 39.37%
same,The mean inhibitory ratio (%),"A549 cells; 72 h, 25 μm",35.74%
same,The inhibitory ratio (%) for three parallel assays,"A549 cells; 72 h, 40 μm",50.18% and 45.68% and 50.45%
same,The mean inhibitory ratio (%),"A549 cells; 72 h, 40 μm",48.77%
same,The inhibitory ratio (%) for three parallel assays,"A549 cells; 72 h, 50 μm",20.27% and 17.70% and 22.30%
same,The mean inhibitory ratio (%),"A549 cells; 72 h, 50 μm",20.09%
same,The inhibitory ratio (%) for three parallel assays,"A549 cells; 72 h, 80 μm",29.59% and 28.51% and 30.14%
same,The mean inhibitory ratio (%),"A549 cells; 72 h, 80 μm",29.41%
same,The inhibitory ratio (%) for three parallel assays,"A549 cells; 72 h, 100 μm",53.11% and 52.70% and 54.05%
same,The mean inhibitory ratio (%),"A549 cells; 72 h, 100 μm",53.29%
